Values after ≈ are worked out from the molar mass of the structure shown.
Legend:
[1] = (§1) Toxicity against brine shrimp larvae assessed as mortality after 24 hrs by binocular microscopic analysis; type: organism-based; conditions: artemia salina, in vivo
[2] = system: Artemia salina; assay: as §1; type: organism-based; conditions: in vivo, 24 h
[3] = Toxicity against brine shrimp larvae assessed as mortality at 10 ug/mL after 24 hrs by binocular microscopic analysis relative to control; type: organism-based; conditions: artemia salina, in vivo
[4] = Toxicity against brine shrimp larvae assessed as mortality at 100 ug/mL after 24 hrs by binocular microscopic analysis relative to control; type: organism-based; conditions: artemia salina, in vivo
[5] = Toxicity against brine shrimp larvae assessed as mortality at 500 ug/mL after 24 hrs by binocular microscopic analysis relative to control; type: organism-based; conditions: artemia salina, in vivo
[6] = Toxicity against brine shrimp larvae assessed as mortality at 1000 ug/mL after 24 hrs by binocular microscopic analysis relative to control; type: organism-based; conditions: artemia salina, in vivo
[7] = system: Chromobacterium violaceum; assay: Antiquorum-sensing activity against Chromobacterium violaceum ATCC 12472 after 48 hrs; type: functional
[8] = system: Aspergillus flavus; assay: Antifungal activity against Aspergillus flavus 3372 at 5 mg/mL after 48 hrs; type: functional; conditions: Aspergillus flavus, 3372, 48 h; read-out: DIZ
[9] = system: Aspergillus fumigatus; assay: Antifungal activity against Aspergillus fumigatus Af293 at 5 mg/mL after 48 hrs; type: functional; conditions: Af293, 48 h, read-out: DIZ
[10] = system: Candida albicans; assay: Antifungal activity against Candida albicans at 5 mg/mL after 48 hrs; type: functional; conditions: read-out: DIZ
[11] = system: Staphylococcus aureus; assay: Antibacterial activity against Staphylococcus aureus at 5 mg/mL after 24 hrs; type: functional; conditions: read-out: DIZ
[12] = system: Bacillus cereus; assay: Antibacterial activity against Bacillus cereus at 5 mg/mL after 24 hrs; type: functional; conditions: read-out: DIZ
[13] = system: Escherichia coli; assay: Antibacterial activity against Escherichia coli at 5 mg/mL after 24 hrs; type: functional; conditions: read-out: DIZ

SMILES | LC50 at 24 h [1] [µg/mL] | LC90 [2] [µg/mL] | mortality at 24 h, 10 ug/mL [3] [%] | mortality at 24 h, 100 ug/mL [4] [%] | mortality at 24 h, 500 ug/mL [5] [%] | mortality at 24 h, 1000 ug/mL [6] [%] | diameter of the inhibition zone (DIZ) [7] [mm] | zone of inhibition at 5000 µg/mL [8] [mm] | zone of inhibition at 5000 µg/mL [9] [mm] | zone of inhibition at 5000 µg/mL [10] [mm] | zone of inhibition at 5000 µg/mL [11] [mm] | zone of inhibition at 5000 µg/mL [12] [mm] | zone of inhibition at 5000 µg/mL [13] [mm]
COc1ccc2c(c1)CCC1=C2N=C2SC(S(N)(=O)=O)=NN2C1c1ccc(OC)c(OC)c1 (stereo not given) | 455 (≈ 936 µM) | 819.67 (≈ 1680 µM) | 46.6 | 63.3 | 76.6 | 93.3 |  |  |  |  |  |  | 
O=c1[nH]cc(F)c(=O)[nH]1 [FLUOROURACIL] | 409 (≈ 3150 µM) | 736.49 (≈ 5660 µM) | 63.3 | 83.3 | 90 | 100 |  |  |  |  |  |  | 
NS(=O)(=O)C1=NN2C(=NC(=O)/C2=C\c2ccc(Br)cc2)S1 | 551 (≈ 1420 µM) | 992.28 (≈ 2560 µM) | 23.3 | 40 | 60 | 80 | <2 | < 2 | < 2 | 8 | 2 | 2 | < 2
Nc1c(/N=N/c2ccc(Br)cc2)c(=O)nc2sc(S(N)(=O)=O)nn12 | 460 (≈ 1070 µM) | 827.2 (≈ 1920 µM) | 46.6 | 66.6 | 80 | 90 | 12 | < 2 | 4 | 6 | 9 | 5 | < 2
N#CC1C(=O)N=C2SC(S(N)(=O)=O)=NN2C1c1ccc(Cl)cc1 (stereo not given) | 660 (≈ 1780 µM) | 1187.33 (≈ 3210 µM) | 23.3 | 36.6 | 50 | 66.6 | 11 | < 2 | 6 | 8 | < 2 | < 2 | < 2
COc1ccc(/N=N/c2c(N)n3nc(S(N)(=O)=O)sc3nc2=O)cc1 | 404 (≈ 1060 µM) | 726.97 (≈ 1910 µM) | 73.3 | 86.6 | 93.3 | 100 | 11 | 5 | < 2 | 6 | 8 | 3 | 5
CC1(C)S[C@@H]2[C@H](NC(=O)[C@H](N)c3ccccc3)C(=O)N2[C@H]1C(=O)O [AMPICILLIN] |  |  |  |  |  |  |  |  |  |  | 14 | 3.5 | 23
Nc1c(/N=N/c2ccccc2)c(=O)nc2sc(S(N)(=O)=O)nn12 | 419 (≈ 1190 µM) | 755.03 (≈ 2150 µM) | 66.6 | 80 | 90 | 96.6 | <2 | < 2 | < 2 | 4 | 7 | 7 | 10
COc1ccc2c(c1)CCC1=C2N=C2SC(S(N)(=O)=O)=NN2C1c1ccc(Cl)cc1 (stereo not given) | 438 (≈ 951 µM) | 788.78 (≈ 1710 µM) | 50 | 66.6 | 80 | 96.6 | <2 | < 2 | < 2 | < 2 | < 2 | < 2 | < 2
COc1ccc2c(c1)CCC1=C2N=C2SC(S(N)(=O)=O)=NN2C1c1ccc(Br)cc1 (stereo not given) |  |  |  |  |  |  | <2 | < 2 | 6 | 14 | < 2 | < 2 | < 2
